Experimental data reported in US11339147B2, “Lactam compound as FXR receptor agonist” (CSPC ZHONGQI PHARMACEUTICAL TECHNOLOGY (SHIJIAZHUANG) CO., …, priority 2017, dated 2022).
Where two headings read alike, the source gives them in different places.

Biological target: T1, glutathione-S-transferase-labeled FXR human protein (Homo sapiens, UniProt Q96RI1)
T1 construct: purchased Invitrogen
T1 sequence (Q96RI1 1-486): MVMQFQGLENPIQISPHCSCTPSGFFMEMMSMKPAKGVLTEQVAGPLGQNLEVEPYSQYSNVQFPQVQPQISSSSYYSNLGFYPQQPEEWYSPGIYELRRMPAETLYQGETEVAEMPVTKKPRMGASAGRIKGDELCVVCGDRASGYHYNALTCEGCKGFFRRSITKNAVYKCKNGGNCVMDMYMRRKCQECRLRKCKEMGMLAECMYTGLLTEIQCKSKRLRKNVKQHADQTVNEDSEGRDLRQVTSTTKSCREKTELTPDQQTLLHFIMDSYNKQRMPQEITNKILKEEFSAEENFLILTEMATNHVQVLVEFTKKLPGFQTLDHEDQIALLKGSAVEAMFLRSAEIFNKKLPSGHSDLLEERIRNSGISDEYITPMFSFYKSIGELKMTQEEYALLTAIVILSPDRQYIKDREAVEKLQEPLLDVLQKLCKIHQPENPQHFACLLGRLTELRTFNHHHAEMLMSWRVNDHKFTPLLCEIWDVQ
Experiment: FXR biochemical experiment (alphascreen, coactivator recruitment)
Conditions: for EC50: alphascreen, activation of FXR binding reaction with steroid receptor coactivator, read-out: FXR enzyme activity EC50; for Emax: read-out: FXR enzyme activity Efficacy (activation efficacy percent)
Description: FXR Biochemical Experiment
To test the effect of the compound on the activation of the FXR binding reaction by a Homogenous Proximity Luminescent Amplified Assay (alphascreen).
1. Protein: glutathione-S-transferase-labeled FXR human protein (Invitrogen)
2. Coactivator: biotin-labeled steroid receptor coactivator (Anaspec)
3. Detection reagent: Homogenous Proximity Luminescent Amplified Assay (alphascreen) detection kit (PerkinElmer)
1. Dilution of compounds: The test compound was prepared as a 40 μM DMSO solution, which was then diluted 3-fold to 10 concentration points. The reference compound was prepared as a 400 μM DMSO solution, and then was 1.5-fold diluted to 10 concentration points. The diluted DMSO solution was added to the micro-wells of a 384-well plate at a volume of 150 nl per well.
2. Glutathione-S-transferase-labeled FXR human protein and biotin-labeled steroid receptor coactivator were prepared to a mixed solution at a concentration of 0.4 nM and 30 nM, respectively. The mixed solution was added to the micro-wells of the 384-well plate at a volume of 15 μL per well, and incubated for 1 hour at room temperature.
3. […] The experiment process was protected from light. It was incubated for 1 hour at room temperature.
4. […] The experiment process was protected from light. It was incubated for 1 hour at room temperature.
5. EC50 test: Envision was used to excite at 680 nm and the […] signal at 520-620 nm was read.
6. Data analysis: Data analysis was conducted using Prism 5.0 to calculate the EC50 value of the activation effect of the compound.

[1] = highest signal relative to reference compound chenodeoxycholic acid (Examples 1-30)
[2] = highest signal relative to reference compound obeticholic acid (Examples 31-47)

Row | Structure (SMILES) | EC50 | FXR enzyme activity Efficacy (activation efficacy percent) [1] | Emax [1] | Emax [2]
1 | O=C(O)C1CCC(CN2C(=O)C3(CC3)c3cc(OCc4c(-c5c(Cl)cccc5Cl)noc4C4CC4)ccc32)CC1 (single isomer, unassigned) [Compound 20] | 830 nM | 169% | – | –
2 | O=C(O)C1CCC(CN2C(=O)C3(CC3)c3cc(OCc4c(-c5c(Cl)cccc5Cl)noc4C4CC4)ccc32)CC1 (single isomer, unassigned) [Compound 21] | 950 nM | 96% | – | –
3 | O=C(O)c1cccc(CN2C(=O)C3(CC3)c3cc(OCc4c(-c5c(Cl)cccc5Cl)noc4C4CC4)ccc32)c1 [Compound 1] | 200 nM | – | 156% | –
4 | O=C(O)c1ccc(CN2C(=O)C3(CC3)c3cc(OCc4c(-c5c(Cl)cccc5Cl)noc4C4CC4)ccc32)cc1 [Compound 2] | 290 nM | – | 155% | –
5 | O=C(O)c1ccc(N2C(=O)C3(CC3)c3cc(OCc4c(-c5c(Cl)cccc5Cl)noc4C4CC4)ccc32)nc1 [Compound 3] | 180 nM | – | 165% | –
6 | Cn1cc(C(=O)O)c2ccc(N3C(=O)C4(CC4)c4cc(OCc5c(-c6c(Cl)cccc6Cl)noc5C5CC5)ccc43)cc21 [Compound 4] | 200 nM | – | 256% | –
7 | O=C(O)c1ccc(N2C(=O)C3(CC3)c3cc(OCc4c(-c5c(Cl)cccc5Cl)noc4C4CC4)ccc32)s1 [Compound 5] | 150 nM | – | 242% | –
8 | O=C(O)c1ccc(N2C(=O)C3(CC3)c3cc(OCc4c(-c5c(Cl)cccc5Cl)noc4C4CC4)ccc32)cc1 [Compound 6] | 100 nM | – | 169% | –
9 | O=C(O)c1cccc(N2C(=O)C3(CC3)c3cc(OCc4c(-c5c(Cl)cccc5Cl)noc4C4CC4)ccc32)c1 [Compound 7] | 240 nM | – | 144% | –
10 | Cc1sc(N2C(=O)C3(CC3)c3cc(OCc4c(-c5c(Cl)cccc5Cl)noc4C4CC4)ccc32)nc1C(=O)O [Compound 8] | 820 nM | – | 35% | –
11 | COc1cc(N2C(=O)C3(CC3)c3cc(OCc4c(-c5c(Cl)cccc5Cl)noc4C4CC4)ccc32)ccc1C(=O)O [Compound 9] | 1560 nM | – | 229% | –
12 | O=C(O)c1ccc(N2C(=O)C3(CC3)c3cc(OCc4c(-c5c(Cl)cccc5Cl)noc4C4CC4)ccc32)cc1F [Compound 10] | 1030 nM | – | 312% | –
13 | O=C(O)c1cccc(CN2C(=O)C3(CCCC3)c3cc(OCc4c(-c5c(Cl)cccc5Cl)noc4C4CC4)ccc32)c1 [Compound 11] | 580 nM | – | 82% | –
14 | O=C(O)c1ccc(N2C(=O)C3(CC3)c3ccc(OCc4c(-c5c(Cl)cccc5Cl)noc4C4CC4)cc32)cc1 [Compound 12] | 1760 nM | – | 33% | –
15 | CC1(C)C(=O)N(c2ccc(C(=O)O)cc2)c2ccc(OCc3c(-c4c(Cl)cccc4Cl)noc3C3CC3)cc21 [Compound 13] | 90 nM | – | 163% | –
16 | CC1(C)C(=O)N(Cc2cccc(C(=O)O)c2)c2ccc(OCc3c(-c4c(Cl)cccc4Cl)noc3C3CC3)cc21 [Compound 14] | 200 nM | – | 136% | –
17 | CC1(C)C(=O)N(c2cccc(C(=O)O)c2)c2ccc(OCc3c(-c4c(Cl)cccc4Cl)noc3C3CC3)cc21 [Compound 15] | 230 nM | – | 152% | –
18 | O=C(O)CCCN1C(=O)C2(CC2)c2cc(OCc3c(-c4c(Cl)cccc4Cl)noc3C3CC3)ccc21 [Compound 16] | 3390 nM | – | 151% | –
19 | O=C(O)CCN1C(=O)C2(CC2)c2cc(OCc3c(-c4c(Cl)cccc4Cl)noc3C3CC3)ccc21 [Compound 17] | 1880 nM | – | 169% | –
20 | O=C(O)C1CC=C(N2C(=O)C3(CC3)c3cc(OCc4c(-c5c(Cl)cccc5Cl)noc4C4CC4)ccc32)CC1 (stereo not shown) [Compound 18] | 660 nM | – | 142% | –
21 | O=C(O)C12CC(CN3C(=O)C4(CC4)c4cc(OCc5c(-c6c(Cl)cccc6Cl)noc5C5CC5)ccc43)(C1)C2 [Compound 19] | 2560 nM | – | 95% | –
22 | O=C(O)c1ccc(CN2C(=O)C3(CC3)c3cc(OCc4c(-c5c(Cl)cccc5Cl)noc4C4CC4)ccc32)nc1 [Compound 22] | 660 nM | – | 200% | –
23 | O=C(O)c1csc(N2C(=O)C3(CC3)c3cc(OCc4c(-c5c(Cl)cccc5Cl)noc4C4CC4)ccc32)c1 [Compound 23] | 310 nM | – | 120% | –
24 | O=C(O)c1cncc(N2C(=O)C3(CC3)c3cc(OCc4c(-c5c(Cl)cccc5Cl)noc4C4CC4)ccc32)c1 [Compound 24] | 610 nM | – | 124% | –
25 | O=C(O)c1ccc(N2C(=O)C3(CC3)c3cc(OCc4c(-c5c(Cl)cccc5Cl)noc4C4CC4)ccc32)cc1Cl [Compound 25] | 410 nM | – | 130% | –
26 | O=C(O)c1ccccc1N1C(=O)C2(CC2)c2cc(OCc3c(-c4c(Cl)cccc4Cl)noc3C3CC3)ccc21 [Compound 26] | 6430 nM | – | 21% | –
27 | O=C(O)c1cc(F)cc(N2C(=O)C3(CC3)c3cc(OCc4c(-c5c(Cl)cccc5Cl)noc4C4CC4)ccc32)c1 [Compound 27] | 410 nM | – | 218% | –

Continued, values first:

Row | EC50 | FXR enzyme activity Efficacy (activation efficacy percent) [1] | Emax [1] | Emax [2] | Structure (SMILES)
28 | 650 nM | – | 186% | – | O=C(O)c1ccc(N2C(=O)C3(CC3)c3cc(OCc4c(-c5ccccc5OC(F)(F)F)noc4C4CC4)ccc32)cc1 [Compound 28]
29 | 560 nM | – | 211% | – | O=C(O)c1ccc(N2C(=O)C3(CC3)c3cc(OCc4c(-c5c(Cl)cncc5Cl)noc4C4CC4)ccc32)cc1 [Compound 29]
30 | 1530 nM | – | 228% | – | O=C(O)c1ccc(N2C(=O)C3(CC3)c3cc(OCc4c(-c5c(Cl)cccc5Cl)noc4C4CC4)cnc32)cc1 [Compound 30]
31 | 43 nM | – | – | 115% | Cn1cc(C(=O)O)c2ccc(N3C(=O)CCc4cc(OCc5c(-c6c(Cl)cccc6Cl)noc5C5CC5)ccc43)cc21 [Compound 31]
32 | 143 nM | – | – | 127% | O=C(O)c1ccc(N2C(=O)CCc3cc(OCc4c(-c5c(Cl)cccc5Cl)noc4C4CC4)ccc32)cc1 [Compound 33]
33 | 127 nM | – | – | 140% | O=C(O)c1ccc(N2C(=O)CCc3cc(OCc4c(-c5c(Cl)cccc5Cl)noc4C4CC4)ccc32)c(F)c1 [Compound 34]
34 | 9 nM | – | – | 161% | O=C(O)c1cnc(N2C(=O)CCc3cc(OCc4c(-c5c(Cl)cccc5Cl)noc4C4CC4)ccc32)c(F)c1 [Compound 35]
35 | 69 nM | – | – | 135% | O=C(O)c1ccc(N2C(=O)CCc3cc(OCc4c(-c5c(Cl)cccc5Cl)noc4C4CC4)ccc32)c(Cl)c1 [Compound 36]
36 | 140 nM | – | – | 118% | O=C(O)c1cnc(N2C(=O)CCc3cc(OCc4c(-c5c(Cl)cccc5Cl)noc4C4CC4)ccc32)s1 [Compound 38]
37 | 35 nM | – | – | 140% | N#Cc1cc(C(=O)O)ccc1N1C(=O)CCc2cc(OCc3c(-c4c(Cl)cccc4Cl)noc3C3CC3)ccc21 [Compound 39]
38 | 58 nM | – | – | 117% | O=C(O)c1ccc(N2C(=O)CCc3cc(OCc4c(-c5c(Cl)cccc5Cl)noc4C4CC4)ccc32)nc1 [Compound 40]
39 | 444 nM | – | – | 95% | O=C(O)c1cccc(N2C(=O)CCc3cc(OCc4c(-c5c(Cl)cccc5Cl)noc4C4CC4)ccc32)c1 [Compound 41]
40 | 189 nM | – | – | 137% | O=C(O)c1cc(N2C(=O)CCc3cc(OCc4c(-c5c(Cl)cccc5Cl)noc4C4CC4)ccc32)ccc1F [Compound 42]
41 | 20 nM | – | – | 153% | Cc1cc(C(=O)O)cnc1N1C(=O)CCc2cc(OCc3c(-c4c(Cl)cccc4Cl)noc3C3CC3)ccc21 [Compound 43]
